pEC50, pIC50, pKd: −log10 of the molar value. Where “and” joins values, the source holds several entries; their conditions need not be identical. Equal values may be shown once. Read-outs that look alike come from different tables or passages of the source.
Legend:
SARS-CoV-2 PLpro [1] = molecular target: T1, SARS-CoV-2 PLpro (Severe acute respiratory syndrome coronavirus 2, UniProt P0DTD1); assay: biochemical; parameters: inhibition of SARS-CoV-2 PLpro, UbRh dose-response replicate value: unit: %; settings: for pIC50: IC50 (UbRh) SARS-CoV-2 PLpro
SARS-CoV PLpro = SARS-CoV PLpro (Severe acute respiratory syndrome coronavirus, UniProt P0C6X7); assay: biochemical; parameters: inhibition of SARS-CoV PLpro, UbRh dose-response replicate value: unit: %
MERS-CoV PLpro = MERS-CoV PLpro (Middle East respiratory syndrome-related coronavirus, UniProt K9N7C7); type: biochemical; parameters: unit: %
USP21 = USP21 (Homo sapiens, UniProt Q9UK80); type: biochemical
[2] = tested on: panel of human DUBs (ATXN3, Cezanne, OTUD1, USP10, USP21, UCHL3); type: biochemical
ATXN3 = ATXN3 (Homo sapiens, UniProt P54252); type: biochemical
Cezanne = Cezanne (Homo sapiens, UniProt Q6GQQ9); type: biochemical
OTUD1 = OTUD1 (Homo sapiens, UniProt Q5VV17); type: biochemical
USP10 = USP10 (Homo sapiens, UniProt Q14694); type: biochemical
UCHL3 = UCHL3 (Homo sapiens, UniProt P15374); type: biochemical
SARS-CoV-2 PLpro [3] = molecular target: T1, SARS-CoV-2 PLpro; assay: biochemical; type: binding
SARS-CoV-2 PLpro [4] = molecular target: T1, SARS-CoV-2 PLpro; assay: cell-based; type: cell-based
[5] = tested on: SARS-CoV-2 clinical isolate VIC001; assay: microbe, parasite or virus in culture; type: cell-based; settings: Severe acute respiratory syndrome coronavirus 2, Vero, read-out: Antiviral EC50 (plaque assay)
SARS-CoV-2 PLpro [6] = molecular target: T1, SARS-CoV-2 PLpro

Sequence of ATXN3 (P54252 whole entry): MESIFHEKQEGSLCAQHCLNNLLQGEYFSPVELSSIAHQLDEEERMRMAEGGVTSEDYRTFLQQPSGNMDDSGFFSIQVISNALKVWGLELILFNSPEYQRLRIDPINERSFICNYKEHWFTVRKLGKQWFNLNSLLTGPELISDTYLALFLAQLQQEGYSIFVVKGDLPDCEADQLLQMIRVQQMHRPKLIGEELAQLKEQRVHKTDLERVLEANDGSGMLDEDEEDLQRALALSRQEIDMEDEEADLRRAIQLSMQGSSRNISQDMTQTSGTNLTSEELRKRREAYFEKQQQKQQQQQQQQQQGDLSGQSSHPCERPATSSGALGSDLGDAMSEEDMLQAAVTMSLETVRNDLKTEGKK
Sequence of UCHL3 (P15374 whole entry): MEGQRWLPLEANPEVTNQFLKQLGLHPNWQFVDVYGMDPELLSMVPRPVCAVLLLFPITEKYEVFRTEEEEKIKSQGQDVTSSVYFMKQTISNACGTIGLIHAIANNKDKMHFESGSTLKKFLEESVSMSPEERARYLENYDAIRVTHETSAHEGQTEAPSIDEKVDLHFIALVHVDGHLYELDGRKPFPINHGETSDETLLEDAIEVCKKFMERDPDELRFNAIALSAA
Sequence of MERS-CoV PLpro (K9N7C7 1482-1803 limits assumed): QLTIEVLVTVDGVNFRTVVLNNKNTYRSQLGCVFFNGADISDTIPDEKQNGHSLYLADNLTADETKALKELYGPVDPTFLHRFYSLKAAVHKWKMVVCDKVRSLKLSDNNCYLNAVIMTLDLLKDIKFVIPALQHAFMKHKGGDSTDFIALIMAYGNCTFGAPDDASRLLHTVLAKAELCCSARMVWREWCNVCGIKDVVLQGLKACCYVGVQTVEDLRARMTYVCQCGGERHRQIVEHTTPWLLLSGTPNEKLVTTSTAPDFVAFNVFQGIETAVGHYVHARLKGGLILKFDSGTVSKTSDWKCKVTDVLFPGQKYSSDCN
Sequence of USP21 (Q9UK80 whole entry): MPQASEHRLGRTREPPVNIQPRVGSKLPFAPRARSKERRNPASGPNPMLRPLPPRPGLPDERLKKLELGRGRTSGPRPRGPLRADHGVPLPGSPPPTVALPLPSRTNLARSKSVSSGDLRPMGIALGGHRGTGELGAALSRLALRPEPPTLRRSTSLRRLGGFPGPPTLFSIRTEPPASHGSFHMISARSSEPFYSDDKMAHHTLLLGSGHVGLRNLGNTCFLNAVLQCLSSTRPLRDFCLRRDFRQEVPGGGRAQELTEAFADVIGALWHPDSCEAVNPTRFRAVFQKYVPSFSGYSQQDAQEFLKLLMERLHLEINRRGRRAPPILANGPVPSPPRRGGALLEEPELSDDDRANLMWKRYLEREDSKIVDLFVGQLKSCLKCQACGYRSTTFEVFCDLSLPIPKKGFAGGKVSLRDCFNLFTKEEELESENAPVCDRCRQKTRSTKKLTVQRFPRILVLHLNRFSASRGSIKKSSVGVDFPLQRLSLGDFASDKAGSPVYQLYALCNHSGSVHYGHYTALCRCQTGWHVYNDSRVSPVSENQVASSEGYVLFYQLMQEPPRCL
Sequence of USP10 (Q14694 whole entry): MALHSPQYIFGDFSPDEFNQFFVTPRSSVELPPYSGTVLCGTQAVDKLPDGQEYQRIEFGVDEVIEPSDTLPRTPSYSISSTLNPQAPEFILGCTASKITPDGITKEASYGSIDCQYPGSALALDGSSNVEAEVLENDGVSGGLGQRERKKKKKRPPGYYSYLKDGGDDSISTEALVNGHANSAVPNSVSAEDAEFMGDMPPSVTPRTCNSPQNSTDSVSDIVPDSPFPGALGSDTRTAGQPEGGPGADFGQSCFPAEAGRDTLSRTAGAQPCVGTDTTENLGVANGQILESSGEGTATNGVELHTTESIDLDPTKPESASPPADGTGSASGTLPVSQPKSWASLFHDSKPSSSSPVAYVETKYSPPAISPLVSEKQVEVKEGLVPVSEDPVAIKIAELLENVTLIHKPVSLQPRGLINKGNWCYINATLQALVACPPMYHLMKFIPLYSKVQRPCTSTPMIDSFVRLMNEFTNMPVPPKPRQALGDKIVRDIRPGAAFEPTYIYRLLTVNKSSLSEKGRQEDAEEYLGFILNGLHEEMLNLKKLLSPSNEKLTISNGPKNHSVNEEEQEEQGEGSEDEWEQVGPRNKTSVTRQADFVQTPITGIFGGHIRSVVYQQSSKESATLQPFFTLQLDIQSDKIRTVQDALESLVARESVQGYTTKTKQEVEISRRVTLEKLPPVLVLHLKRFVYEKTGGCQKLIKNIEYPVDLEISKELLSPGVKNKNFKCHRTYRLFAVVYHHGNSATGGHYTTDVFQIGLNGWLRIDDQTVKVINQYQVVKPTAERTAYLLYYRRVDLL
Sequence of OTUD1 (Q5VV17 whole entry): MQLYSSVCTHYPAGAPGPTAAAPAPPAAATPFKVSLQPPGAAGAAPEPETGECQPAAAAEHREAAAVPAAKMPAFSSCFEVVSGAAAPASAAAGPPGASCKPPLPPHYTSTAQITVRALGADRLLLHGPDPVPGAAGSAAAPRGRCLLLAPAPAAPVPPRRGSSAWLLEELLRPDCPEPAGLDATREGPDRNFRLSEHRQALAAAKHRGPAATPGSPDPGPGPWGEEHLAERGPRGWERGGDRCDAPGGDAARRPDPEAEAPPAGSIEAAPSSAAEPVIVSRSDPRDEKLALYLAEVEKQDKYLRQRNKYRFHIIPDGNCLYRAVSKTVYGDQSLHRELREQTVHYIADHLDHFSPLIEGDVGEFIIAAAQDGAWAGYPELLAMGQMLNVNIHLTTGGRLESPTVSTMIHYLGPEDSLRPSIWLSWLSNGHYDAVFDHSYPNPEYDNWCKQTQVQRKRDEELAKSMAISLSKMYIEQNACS
Sequence of Cezanne (Q6GQQ9 whole entry): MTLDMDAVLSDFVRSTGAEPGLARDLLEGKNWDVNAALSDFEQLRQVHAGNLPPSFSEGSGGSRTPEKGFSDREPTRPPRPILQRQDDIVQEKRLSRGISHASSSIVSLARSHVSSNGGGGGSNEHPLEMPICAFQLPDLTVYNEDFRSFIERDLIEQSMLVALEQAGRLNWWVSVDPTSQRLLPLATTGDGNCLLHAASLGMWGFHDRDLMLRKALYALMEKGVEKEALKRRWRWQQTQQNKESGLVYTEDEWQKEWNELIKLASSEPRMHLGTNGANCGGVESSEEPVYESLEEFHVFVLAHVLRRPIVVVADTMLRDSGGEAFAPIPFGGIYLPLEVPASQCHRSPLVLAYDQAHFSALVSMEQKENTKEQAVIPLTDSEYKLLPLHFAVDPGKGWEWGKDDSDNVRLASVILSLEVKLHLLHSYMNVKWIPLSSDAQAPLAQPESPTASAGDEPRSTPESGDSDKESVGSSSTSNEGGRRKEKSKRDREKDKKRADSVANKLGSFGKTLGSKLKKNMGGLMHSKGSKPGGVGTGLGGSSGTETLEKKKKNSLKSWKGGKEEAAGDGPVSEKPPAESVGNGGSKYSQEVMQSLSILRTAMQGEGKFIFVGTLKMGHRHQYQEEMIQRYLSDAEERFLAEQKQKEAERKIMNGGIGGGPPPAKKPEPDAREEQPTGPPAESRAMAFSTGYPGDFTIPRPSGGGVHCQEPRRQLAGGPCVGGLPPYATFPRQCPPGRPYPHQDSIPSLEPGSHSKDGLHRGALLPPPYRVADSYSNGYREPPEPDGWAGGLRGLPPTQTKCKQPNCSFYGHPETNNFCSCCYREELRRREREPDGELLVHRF

COc1ccc2cc(C(=O)C3CCCN(C4CCCC4)C3)ccc2c1 (centres unmarked) [WEHI-P1]
inhibition of SARS-CoV-2 PLpro, UbRh dose-response replicate value (SARS-CoV-2 PLpro [1]; Conc 0.00498 µM): -13.6732 and 2.3131 and -7.154 and -11.0795 and 7.963 and 4.4501 and -10.0607 and -6.545 and -6.343 and -0.9072 and -6.992 and -7.263 and -7.665 | inhibition of SARS-CoV-2 PLpro, UbRh dose-response replicate value (SARS-CoV-2 PLpro [1]; Conc 0.0149 µM): -0.6879 and 3.256 and -8.137 and -12.3628 and 2.155 and 5.8571 and -3.891 and -5.469 and -7.734 and -5.926 and -7.3449 | inhibition of SARS-CoV-2 PLpro, UbRh dose-response replicate value (SARS-CoV-2 PLpro [1]; Conc 0.0448 µM): 1.291 and 3.348 and -5.506 and -4.578 and 2.528 and 6.172 and -28.1035 and -26.7808 and -16.0105 and -8.021 and -5.978 and -3.428 and -7.448 | inhibition of SARS-CoV-2 PLpro, UbRh dose-response replicate value (SARS-CoV-2 PLpro [1]; Conc 3.63 µM): 55.1403 and 49.1297 and 72.2398 and 55.1118 and 68.8818 and 68.3038 and 70.3435 and 68.1584 and 58.3924 and 61.1283 and 62.8891 and 58.2582 and 68.987 | inhibition of SARS-CoV-2 PLpro, UbRh dose-response replicate value (SARS-CoV-2 PLpro [1]; Conc 98 µM): 124.948 and 118.973 and 118.719 and 93.4483 and 92.6536 and 95.3254 and 94.6236 and 97.9546 and 83.9689 and 107.904 and 110.814 and 103.242 and 108.864 | pIC50 (SARS-CoV-2 PLpro [1]): 5.59 | pIC50 (SARS-CoV-2 PLpro [1]; Supplementary Fig. 2b): 5.59 | inhibition of SARS-CoV PLpro, UbRh dose-response replicate value (SARS-CoV PLpro; Conc 3.63 µM): 43.26 and 41.4233 and 40.1519 and 56.4827 and 56.7648 and 53.2219 | inhibition at 3.63 µM (SARS-CoV PLpro; Conc 3.63 µM, read-out: inhibition of SARS-CoV PLpro, UbRh dose-response replicate value): 43.3% | inhibition of SARS-CoV PLpro, UbRh dose-response replicate value (SARS-CoV PLpro; Conc 98 µM): 89.3568 and 87.1144 and 87.3043 and 96.6611 and 96.2974 and 95.7026 and 96.1294 | inhibition at 98 µM (SARS-CoV PLpro; Conc 98 µM, read-out: inhibition of SARS-CoV PLpro, UbRh dose-response replicate value): 89.2% | inhibition at […] (SARS-CoV PLpro; read-out: inhibition of SARS-CoV PLpro, UbRh dose-response replicate value): 84.6% and 69.7% | inhibition of MERS-CoV PLpro, UbRh dose-response replicate value (MERS-CoV PLpro; Conc 0.00498 µM): -4.614 and -3.364 and 0.3636 and -5.453 and 6.667 and 6.005 and 3.997 and 2.909 | inhibition of MERS-CoV PLpro, UbRh dose-response replicate value (MERS-CoV PLpro; Conc 0.0149 µM): -3.576 and -5.738 and -4.053 and -6.88 and 8.95 and 6.88 and 9.641 and 2.2309 | inhibition of MERS-CoV PLpro, UbRh dose-response replicate value (MERS-CoV PLpro; Conc 0.0448 µM): -7.082 and -11.2097 and -12.434 and -8.665 and 6.324 and 5.9119 and 5.395 and 2.288 | inhibition of MERS-CoV PLpro, UbRh dose-response replicate value (MERS-CoV PLpro; Conc 3.63 µM): -1.223 and -11.7007 and -12.14 and -8.237 and 5.5159 and 6.719 | inhibition of MERS-CoV PLpro, UbRh dose-response replicate value (MERS-CoV PLpro; Conc 98 µM): -14.4158 and -18.412 and -13.4114 and -9.9342 and 9.6505 and 10.1326 and 6.766 and 4.38 | inhibition of USP21, UbRh dose-response replicate value (USP21): -17.3591 and -12.2032 and -18.6472 and -15.4853 and -14.4522 and -19.2052 and -17.9515 and -18.065 and -8.946 and -2.6161 and -10.7527 and -20.9333 and -7.844 and -9.819 and -13.8068 and -21.9255 and -4.154 and -2.302 and -19.2663 and -19.4961 | inhibition of USP21, UbRh dose-response replicate value (USP21; Conc 0.00498 µM): -6.669 and -13.4551 and -20.5516 and -18.4137 | inhibition of USP21, UbRh dose-response replicate value (USP21; Conc 0.0149 µM): -7.696 and -8.6697 and -11.755 and -9.346 | inhibition of USP21, UbRh dose-response replicate value (USP21; Conc 0.0448 µM): -2.649 and -22.6918 and -12.9296 | inhibition of USP21, UbRh dose-response replicate value (USP21; Conc 3.63 µM): -16.692 and -5.223 and -23.134 and -16.0626 | inhibition of USP21, UbRh dose-response replicate value (USP21; Conc 98 µM): -13.9863 and -21.5031 and -20.8818 and -12.5688 | cross-reactivity in a panel of human DUBs [2]: no cross-reactivity | inhibition of ATXN3, UbRh dose-response replicate value (ATXN3): -8.641 and -11.1993 and -4.869 and 4.344 and -19.3823 and -18.001 and -0.7368 and -2.308 and -5.209 and -10.7506 and -7.279 and -8.7353 and -8.48 and -12.1184 and -9.5356 and 0.5603 and -15.7867 and -11.4036 and -7.524 | inhibition of ATXN3, UbRh dose-response replicate value (ATXN3; Conc 0.00498 µM): -12.0566 and -16.4021 and -4.426 and -13.5708 | inhibition of ATXN3, UbRh dose-response replicate value (ATXN3; Conc 0.0149 µM): -11.0193 and -9.528 and -12.1815 and -14.805 | inhibition of ATXN3, UbRh dose-response replicate value (ATXN3; Conc 0.0448 µM): -8.047 and -9.745 and -7.569 and -8.486 | inhibition of ATXN3, UbRh dose-response replicate value (ATXN3; Conc 3.63 µM): -16.703 and -12.2662 and -13.9462 and -9.635 | inhibition of ATXN3, UbRh dose-response replicate value (ATXN3; Conc 98 µM): -16.0742 and -15.5502 | inhibition of Cezanne, UbRh dose-response replicate value (Cezanne): -18.912 and -15.6278 and -2.351 and 1.9841 and -10.3668 and -26.3356 and -4.177 and -7.241 and -8.329 and -15.5113 and -9.927 and -0.3728 and -12.3899 and 0.2487 and -4.422 and -3.858 and -10.5494 and -3.083 and 1.0161 and -4.6404 | inhibition of Cezanne, UbRh dose-response replicate value (Cezanne; Conc 0.00498 µM): -5.218 and -11.645 and -1.408 and -0.02766 | inhibition of Cezanne, UbRh dose-response replicate value (Cezanne; Conc 0.0149 µM): -1.15 and -11.2131 and -3.066 and -2.486 | inhibition of Cezanne, UbRh dose-response replicate value (Cezanne; Conc 0.0448 µM): -8.614 and -15.6484 and -3.285 and 0.7467 | inhibition of Cezanne, UbRh dose-response replicate value (Cezanne; Conc 3.63 µM): -15.9321 and -15.0246 and -5.238 and -9.8 | inhibition of Cezanne, UbRh dose-response replicate value (Cezanne; Conc 98 µM): -30.6124 and -29.2216 and 3.466 and 11.4705 | inhibition of OTUD1, UbRh dose-response replicate value (OTUD1): -10.6037 and -11.2887 and -9.792 and -7.833 and -12.7647 and -0.9075 and 2.163 and -5.7654 and -7.285 and -0.8912 and -5.258 and -7.97 and -1.274 and -2.017 and -4.922 and 1.155 and -8.198 and 3.097 and -7.799 and -6.802 | inhibition of OTUD1, UbRh dose-response replicate value (OTUD1; Conc 0.00498 µM): -2.098 and -3.857 | inhibition of OTUD1, UbRh dose-response replicate value (OTUD1; Conc 0.0149 µM): 0.5359 and 5.168 and -4.672 and 0.608 | inhibition of OTUD1, UbRh dose-response replicate value (OTUD1; Conc 0.0448 µM): 0.07106 and -1.381 and -0.3944 and -8.021 | inhibition of OTUD1, UbRh dose-response replicate value (OTUD1; Conc 3.63 µM): -3.7862 and -2.718 and -1.038 and -8.072 | inhibition of OTUD1, UbRh dose-response replicate value (OTUD1; Conc 98 µM): -27.4599 and -27.4028 | inhibition of USP10, UbRh dose-response replicate value (USP10): -17.9764 and -33.546 and -1.777 and -1.005 and -2.268 and -5.196 and 1.437 and 7.331 and 6.946 and -2.385 and 10.5944 and 12.4488 and -3.943 and -14.76 and 8.848 and 13.2594 and -3.1801 | inhibition of USP10, UbRh dose-response replicate value (USP10; Conc 0.00498 µM): 10.1443 and 12.7446 and 2.857 and 1.607 | inhibition of USP10, UbRh dose-response replicate value (USP10; Conc 0.0149 µM): 1.87 and 11.8374 and 1.723 and 2.761 | inhibition of USP10, UbRh dose-response replicate value (USP10; Conc 0.0448 µM): 5.874 and 6.2633 and -3.914 | inhibition of USP10, UbRh dose-response replicate value (USP10; Conc 3.63 µM): -1.745 and -4.256 and -2.239 and 0.7005 | inhibition of USP10, UbRh dose-response replicate value (USP10; Conc 98 µM): -22.6046 and 5.737 and 3.4 | inhibition of UCHL3, UbRh dose-response replicate value (UCHL3): -15.7962 and -10.6437 and -3.089 and -8.07 and -1.79 and -9.314 and -4.512 and -11.432 and -8.325 and -0.3429 and -5.346 and 2.661 and -3.761 and -0.9211 and -0.1651 and 0.1836 and -9.635 and -0.5542 and -7.392 | inhibition of UCHL3, UbRh dose-response replicate value (UCHL3; Conc 0.00498 µM): -2.717 and -5.843 and -1.232 and -3.133 | inhibition of UCHL3, UbRh dose-response replicate value (UCHL3; Conc 0.0149 µM): -3.556 and -7.101 and -2.8889 and -5.9018 | inhibition of UCHL3, UbRh dose-response replicate value (UCHL3; Conc 0.0448 µM): -13.5671 and -9.936 and 2.559 and -5.235 | inhibition of UCHL3, UbRh dose-response replicate value (UCHL3; Conc 3.63 µM): -2.824 and -12.2743 and -7.514 and -7.892 | inhibition of UCHL3, UbRh dose-response replicate value (UCHL3; Conc 98 µM): -24.2494 and -16.3148 and -12.8948 and -13.0616 | pKd (SARS-CoV-2 PLpro [3]): 5.08 | pEC50 (SARS-CoV-2 PLpro [4]): < 4.70 | pEC50 [5]: < 5.70 | Molar Mass (kDa) (SARS-CoV-2 PLpro [6]): 32.7945 kDa and 33.2145 kDa and 33.2745 kDa | observed molar mass of PLpro (SEC-MALS) (SARS-CoV-2 PLpro [6]): 34.9 kDa

From paper PMC11969009 (Nature Communications, 2025)
